Legend:
[1] = system: dizocilpine-induced locomotor hyperactivity; test: Dizocilpine (MK-801)-induced locomotor hyperactivity in mice; type: in vivo; conditions: reversal of dizocilpine (MK-801)-induced hyperlocomotion, male CD-1 mice, i.p., 30 minutes before the experiment
Description: Potential antipsychotic activity was tested for the representative compounds in mouse model of psychosis, involving the induction of locomotor hyperactivity by administering psychotomimetic substance—dizocilpine. The ability of a test compound to remove this effect is a measure of potential antipsychotic activity.
Male CD-1 mice were group-housed for 2-3 day period in polycarbonate Makrolon type 3 cages (dimensions 26.5×15×42 cm) in an environmentally controlled, experimental room (ambient temperature 22-20° C.; relative humidity 50-60%; 12:12 light:dark cycle, lights on at 8:00), in groups of 15. Standard laboratory food (Ssniff M-Z) and filtered water were freely available. On the day before experiments the equipment produced “white noise” was turned on for 30 minutes and mice were weighted exact to 1 g. Animals were assigned randomly to treatment groups. All the experiments were performed by two observers unaware of the treatment applied between 9:00 and 14:00 on separate groups of animals. Mice were used only once and were killed immediately after the experiment.
The locomotor activity was recorded with an Opto M3 multi-channel activity monitor (MuttiDevice Software v.1.3, Columbus Instruments). The mice were individually placed in plastic cages (22×12×13 cm) for 30 minutes habituation period, and then the crossings of each channel (ambulation) were counted during 1 h with data recording every 5 minutes. The cages were cleaned up with 70% ethanol after examining each mouse. Drugs were administered to 10 mice per treatment group. Test compounds were given 30 minutes before the experiment. Dizocilpine was administered 30 minutes before the test.
Test compounds were prepared as a suspension in 1% aqueous solution of Tween 80, and dizocilpine was dissolved in distilled water immediately before administration. An injection volume of 10 ml/kg was used and all compounds were administered intraperitoneally (i.p.).

[2] = biological target: T1, hERG potassium channels (KCNH2 gene, expressed in CHO cells) (Homo sapiens, UniProt Q12809); test: Ability to block hERG potassium channel (electrophysiology, IonWorks Quattro); type: cell-based; conditions: % block of hERG current, test compound 1×10^−5 M
T1 construct: expressed in transfected cells; host or cells: CHO cells
T1 sequence (Q12809 whole entry): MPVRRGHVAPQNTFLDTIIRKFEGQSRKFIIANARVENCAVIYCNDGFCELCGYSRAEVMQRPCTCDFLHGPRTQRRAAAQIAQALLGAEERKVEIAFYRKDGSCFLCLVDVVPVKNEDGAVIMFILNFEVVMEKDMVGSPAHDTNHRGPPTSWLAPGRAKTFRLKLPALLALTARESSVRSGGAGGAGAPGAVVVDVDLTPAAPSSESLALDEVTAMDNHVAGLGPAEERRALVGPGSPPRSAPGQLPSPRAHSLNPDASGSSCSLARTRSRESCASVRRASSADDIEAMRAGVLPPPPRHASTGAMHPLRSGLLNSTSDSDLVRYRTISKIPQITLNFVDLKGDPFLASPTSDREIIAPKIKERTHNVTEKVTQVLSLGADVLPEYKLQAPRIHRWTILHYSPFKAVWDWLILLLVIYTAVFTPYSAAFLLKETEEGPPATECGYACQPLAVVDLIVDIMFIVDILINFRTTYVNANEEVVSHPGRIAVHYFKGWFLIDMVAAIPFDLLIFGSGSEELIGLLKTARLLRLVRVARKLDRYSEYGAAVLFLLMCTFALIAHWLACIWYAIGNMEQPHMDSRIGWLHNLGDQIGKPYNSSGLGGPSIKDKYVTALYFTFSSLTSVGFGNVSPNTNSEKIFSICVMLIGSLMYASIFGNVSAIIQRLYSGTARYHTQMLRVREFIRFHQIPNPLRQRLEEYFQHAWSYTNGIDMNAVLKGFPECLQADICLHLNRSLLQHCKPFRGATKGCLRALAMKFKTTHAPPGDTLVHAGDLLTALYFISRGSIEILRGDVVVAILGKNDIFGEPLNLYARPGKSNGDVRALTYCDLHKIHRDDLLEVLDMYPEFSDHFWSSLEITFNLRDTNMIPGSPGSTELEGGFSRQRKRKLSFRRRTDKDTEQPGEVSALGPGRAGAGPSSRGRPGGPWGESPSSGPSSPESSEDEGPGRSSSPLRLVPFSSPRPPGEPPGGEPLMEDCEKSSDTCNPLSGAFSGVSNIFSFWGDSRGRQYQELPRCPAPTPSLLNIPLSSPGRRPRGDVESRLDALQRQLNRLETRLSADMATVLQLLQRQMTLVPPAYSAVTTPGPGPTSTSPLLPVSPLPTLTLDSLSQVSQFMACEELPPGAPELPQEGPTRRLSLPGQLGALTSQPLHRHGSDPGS
Description: Moreover, the ability of the compounds of the invention to block potassium channel hERG was tested.
Ability to block hERG potassium channels was determined using the electrophysiological method and cloned hERG potassium channels (KCNH2 gene, expressed in CHO cells) as biological material. The effects were evaluated using IonWorks™ Quattro system (MDS-AT).
hERG current was elicited using a pulse pattern with fixed amplitudes (conditioning pre-pulse: −80 mV for 25 ms; test pulse: +40 mV for 80 ms) from a holding potential of 0 mV. hERG current was measured as a difference between the peak current at 1 ms after the test step to +40 mV and the steady-state current at the end of the step to +40 mV.
Data acquisition and analyses was performed using the IonWorks Quattro™ system operation software (version 2.0.2; Molecular Devices Corporation, Union City, Calif.). Data were corrected for leak current.
The hERG block was calculated as:
% Block=(1−ITA/IControl)×100%,
where IControl and ITA were the currents elicited by the test pulse in control and in the presence of a test article, respectively.
Concentration-response data for the blocks were fit to an equation of the following form:
% Block=% VC+{(% PC−% VC)−(% PC−% VC)/[1+([Test]/IC50)N]},

[3] = biological target: T2, 5-HT reuptake (rat brain synaptosomes) (Rattus norvegicus, UniProt P31652); test: 5-HT reuptake, [3H]5-HT incorporation into rat brain synaptosomes; type: biochemical; conditions: 15 min/37° C., read-out: SERT IC50
T2 construct: measuring [^3H]5-HT incorporation into rat brain synaptosomes; from tissue; host or cells: rat brain synaptosomes
T2 sequence (P31652 whole entry): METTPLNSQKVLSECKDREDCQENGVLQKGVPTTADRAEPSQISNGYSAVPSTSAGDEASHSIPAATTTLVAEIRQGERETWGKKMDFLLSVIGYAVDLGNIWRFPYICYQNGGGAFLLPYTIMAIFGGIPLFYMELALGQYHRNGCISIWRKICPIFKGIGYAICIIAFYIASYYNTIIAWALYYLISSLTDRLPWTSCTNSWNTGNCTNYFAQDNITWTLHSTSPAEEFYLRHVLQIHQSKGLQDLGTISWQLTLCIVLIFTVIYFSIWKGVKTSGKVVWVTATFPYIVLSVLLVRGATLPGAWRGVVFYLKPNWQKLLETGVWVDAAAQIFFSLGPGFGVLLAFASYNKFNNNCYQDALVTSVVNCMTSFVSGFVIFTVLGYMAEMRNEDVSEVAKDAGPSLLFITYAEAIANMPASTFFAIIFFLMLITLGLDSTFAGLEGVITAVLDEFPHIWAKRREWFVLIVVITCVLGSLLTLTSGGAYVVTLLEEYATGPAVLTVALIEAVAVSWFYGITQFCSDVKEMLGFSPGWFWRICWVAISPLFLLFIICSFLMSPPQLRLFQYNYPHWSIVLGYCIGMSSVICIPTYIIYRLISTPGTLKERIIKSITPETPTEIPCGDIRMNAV
Description: 5-HT reuptake was tested according to Perovic, S. and Muller, W.E.G. (1995) Arzneim-Forsch. Drug Res., 45: 1145-1148 by measuring [^3H]5-HT incorporation into rat brain synaptosomes. Assay conditions are as follows:
Tracer: [^3H]5-HT (0.2 μCi/ml)
Incubation: 15 min/37° C.

Compound	MED* [mg/kg] (minimum effective dose) [1]	hERG [%] [2] [%]	IC50 [3] [nM]
O=S(=O)(NC1CCN(CCCc2noc3cc(F)ccc23)C1)c1ccc2ccccc2c1 (stereo not shown) [Compound 21, N-[1-[3-(6-Fluoro-1,2-benzoxazol-3-yl)propyl]pyrrolidin-3-yl]naphthalene-2-sulphonamide]	10	3.3	
O=S(=O)(NC1CCN(CCCc2noc3cc(F)ccc23)C1)c1cc2ccccc2s1 (stereo not shown) [Compound 25, N-[1-[3-(6-Fluoro-1,2-benzoxazol-3-yl)propyl]pyrrolidin-3-yl]-benzothiophene-2-sulphonamide]	5	2.9	
O=S(=O)(NC1CCN(CCCc2noc3cc(F)ccc23)C1)c1csc2ccccc12 (stereo not shown) [Compound 26, N-[1-[3-(6-Fluoro-1,2-benzoxazol-3-yl)propyl]pyrrolidin-3-yl]-benzothiophene-3-sulphonamide]		6.1	
O=S(=O)(NC1CCN(CCCc2noc3cc(F)ccc23)CC1)c1cccc2ccccc12 [Compound 34, N-[1-[3-(6-Fluoro-1,2-benzoxazol-3-yl)propyl]-4-piperidine]-naphthalene-1-sulphonamide]		−1.1	
O=S(=O)(NC1CCN(CCCc2c[nH]c3ccc(F)cc23)C1)c1ccc2ccccc2c1 (stereo not shown) [Compound 80, N-[1-[3-(5-Fluoro-1H-indol-3-yl)propyl]pyrrolidin-3-yl]naphthalene-2-sulphonamide]			2.1
O=S(=O)(NC1CCN(CCCc2c[nH]c3ccc(Cl)cc23)C1)c1cccc(Cl)c1 (stereo not shown) [Compound 84, 3-Chloro-N-[1-[3-(5-chloro-1H-indol-3-yl)propyl]pyrrolidin-3-yl]benzenesulphonamide]			64
O=S(=O)(NC1CN(CCOc2cccc3c2OCCO3)C1)c1cccc2ccccc12 [Compound 94, N-[1-[2-(2,3-Dihydro-1,4-benzodioxan-8-yloxy)ethyl]azetidin-3-yl]-naphthalene-1-sulphonamide]		4.8	
O=S(=O)(N[C@@H]1CCN(CCCc2noc3cc(F)ccc23)C1)c1cc2ccccc2s1 [Compound 196, N-[(3R)-1-[3-(6-Fluoro-1,2-benzoxazol-3-yl)propyl]pyrrolidin-3-yl]benzo-thiophene-2-sulphonamide]	2.5		

From patent US20140135310A1, “SULPHONAMIDE DERIVATIVES OF ALICYCLIC AMINES FOR THE TREATMENT OF CENTRAL NERVOUS SYSTEM DISEASES” (Adamed Sp. z o.o., priority 2011, published 2014)
